“Also recorded” adds a separate entry of the source.
Legend:
[1] = test system: patients with non-small cell lung cancer (NSCLC); settings: afatinib 40 mg/day for 90 days, cited from earlier work
[2] = test system: skin and subcutaneous tissue; settings: EMA marketing authorization documentation; cited from earlier work
[3] = test system: Asian patients with advanced non-small-cell lung cancer harboring EGFR mutations; settings: cited from earlier work
[4] = test system: patients with metastatic lung adenocarcinoma with EGFR mutations; settings: cited from earlier work
[5] = test system: patients with EGFR mutation-positive non-small-cell lung cancer; settings: LUX-Lung 7, cited from earlier work
[6] = test system: appropriate patient population; settings: approximately; when given to an appropriate patient population; cited from earlier work
[7] = test system: patients with metastatic lung cancer; test: Retrospective study of prophylactic dermatological treatment with polydatin cream on cutaneous toxicity of afatinib (NCI-CTCAE v3.0 grading); format: in vivo; settings: for Incidence of skin rash, All grades (%) / Incidence of skin rash, Grade 1 (%) / Incidence of skin rash, Grade 2 (%) / Incidence of skin rash, Grade 3 (%): 1.5% polydatin cream twice a day
Excerpt: The main exclusion criteria were: poor patient compliance; allergy or sensitivity to polydatin; current or previous treatment with topical or oral antioxidant drugs; concomitant skin diseases.
The retrospective study was specifically designed to evaluate a proactive management of EGFR-mediated skin toxicity, in order to minimize the possibility of having to reduce the dose or suspend the antitumor treatment.
Patients were monitored every 7 days for the first month, and thereafter every 20 days or when needed.
Data about severity, duration and management of cutaneous toxicity induced by TKI were analyzed in all patients treated using a descriptive statistic.
The scale used for the classification of cutaneous toxicities induced by EGFR-targeted therapies was the classification scale of the Common Terminology Criteria for Adverse Events of the National Cancer Institute.

skin = skin reactions during treatment with sunitinib and sorafenib; cited from earlier work
[8] = of the 160 (afatinib) / 159 (gefitinib) patients treated
[9] = term used for a group of adverse events
[10] = Cutaneous rash, all patients (n = 34), afatinib 40 mg/day

## CN(C)C/C=C/C(=O)Nc1cc2c(Nc3ccc(F)c(Cl)c3)ncnc2cc1O[C@H]1CCOC1 [Afatinib, afatinib]
[1]; control arm (no treatment)
  incidence of rash of any grade: 75.6%
[1]; control arm
  incidence of rash grade ≥ 2: 35.6%
[2]
  frequency of acneiform dermatitis: very common ("very common" (frequency ≥ 1/10))
  frequency of dryness of the skin (xerosis): very common ("very common" (frequency ≥ 1/10))
  frequency of itching: very common ("very common" (frequency ≥ 1/10))
  frequency of palmoplantar erythrodysesthesia syndrome: common ("common" (frequency ≥ 1/100 e < 1/10))
  frequency of skin rash: very common ("very common" (frequency ≥ 1/10))
[3]; LUX LUNG 6
  incidence of rash grade 1-2: 66.1%
  rate of treatment discontinuation due to adverse events: 2.1%
[3]; LUX-Lung 6 (LL6)
  Asthenia, All grades: 10.0%
  Asthenia, Grade 3: 0.4%
  Asthenia, Grade 4: 0%
  Diarrhea, All grades: 88.3%
  Diarrhea, Grade 3: 5.4%
  Diarrhea, Grade 4: 0%
  Hitching, All grades: 10.9%
  Hitching, Grade 3: 0.4/0.4%
  Hitching, Grade 4: 0%
  Nausea, All grades: 7.5%
  Nausea, Grade 3: 0.0%
  Nausea, Grade 4: 0%
  Paronychia/periungual problems, All grades: 32.6%
  Paronychia/periungual problems, Grade 3: 0.0%
  Paronychia/periungual problems, Grade 4: 0%
  Rash/acne, All grades: 80.8%
  Rash/acne, Grade 3: 14.2%
  Rash/acne, Grade 4: 0.4%
  Reduction of appetite, All grades: 10.0%
  Reduction of appetite, Grade 3: 1.3%
  Reduction of appetite, Grade 4: 0%
  Stomatitis/mucositis, All grades: 51.9%
  Stomatitis/mucositis, Grade 3: 5.4%
  Stomatitis/mucositis, Grade 4: 0.0%
  Vomiting, All grades: 9.6%
  Vomiting, Grade 3: 0.8%
  Vomiting, Grade 4: 0%
[4]; LUX LUNG 3, % of patients
  treatment discontinued due to treatment-related adverse events: 8%
[4]; LUX LUNG 3
  incidence of rash grade 1-2: 72.9%
[4]; LUX-Lung 3 (LL3)
  Asthenia, All grades: 17.5%
  Asthenia, Grade 3: 1.3%
  Asthenia, Grade 4: 0%
  Diarrhea, All grades: 95.2%
  Diarrhea, Grade 3: 14.4%
  Diarrhea, Grade 4: 0%
  Dry skin, All grades: 29.3/NA %
  Dry skin, Grade 3: 0.4/NA %
  Dry skin, Grade 4: 0%
  Hitching, All grades: 18.8%
  Hitching, Grade 3: 0.4/0.4%
  Hitching, Grade 4: 0%
  Nausea, All grades: 17.9%
  Nausea, Grade 3: 0.9%
  Nausea, Grade 4: 0%
  Paronychia/periungual problems, All grades: 56.8%
  Paronychia/periungual problems, Grade 3: 11.4%
  Paronychia/periungual problems, Grade 4: 0%
  Rash/acne, All grades: 89.1%
  Rash/acne, Grade 3: 16.2%
  Rash/acne, Grade 4: 0.0%
  Reduction of appetite, All grades: 20.5%
  Reduction of appetite, Grade 3: 3.1%
  Reduction of appetite, Grade 4: 0%
  Stomatitis/mucositis, All grades: 72.1%
  Stomatitis/mucositis, Grade 3: 8.37%
  Stomatitis/mucositis, Grade 4: 0.4%
  Vomiting, All grades: 17.0%
  Vomiting, Grade 3: 3.1%
  Vomiting, Grade 4: 0%
[5]; ALT, alanine aminotransferase
  ALT increased, All: 9.4%
[5]; AST, aspartate aminotransferase
  AST increased, All: 6.3%
[5]; afatinib 40 mg/day or gefitinib 250 mg/day
  Diarrhea, All: 90.0%
[5]
  Alopecia, All: 10.6%
  Itching, All: 23.1%
  Nausea, All: 16.3%
  Nausea, Grade 3: 1.3%
  Reduction of appetite, All: 16.3%
  Reduction of appetite, Grade 3: 0.6%
  Vomiting, All: 10.6%
  Xerosis, All: 32.5%
  grade 3 or 4 diarrhea: 13%
  grade 3 or 4 rash or acne: 9%
[5]; [8]
  grade 3 or 4 diarrhea, number of patients: 20 patients
  grade 3 or 4 rash or acne, number of patients: 15 patients
[5]; [9]
  Asthenia*, All: 20.6%
  Asthenia*, Grade 3: 5.6%
  Paronychia*, All: 55.6%
  Paronychia*, Grade 3: 1.9%
  Rash/acne*, All: 88.8%
  Rash/acne*, Grade 3: 9.4%
  Stomatitis*, All: 64.4%
  Stomatitis*, Grade 3: 4.4%

## COc1cc2ncnc(Nc3ccc(F)c(Cl)c3)c2cc1OCCCN1CCOCC1 [Gefitinib, gefitinib]
[6]
  response rates: 60-70%

## C#Cc1cccc(Nc2ncnc3cc(OCCOC)c(OCCOC)cc23)c1 [erlotinib]
[6]
  response rates: 60-70%

## OC[C@H]1O[C@@H](Oc2cc(O)cc(/C=C/c3ccc(O)cc3)c2)[C@H](O)[C@@H](O)[C@@H]1O [polydatin, 3,4,5'-trihydroxystilbene-3-β-mono-d-glucoside]
[7]; 1.5% polydatin cream prophylaxis, afatinib 40 mg/day, n = 34
  patients who had to discontinue therapy due to toxicity of the antitumor drug: no patient; also recorded: no suspension of treatment
[7]; [10]
  Incidence of skin rash, All grades (%): 41.2%
  Incidence of skin rash, Grade 1 (%): 20.6%
  Incidence of skin rash, Grade 2 (%): 20.6%
  Incidence of skin rash, Grade 3 (%): 0%
[7]; Females, afatinib 40 mg/day
  Incidence of skin rash, All grades (%): 23.5%
  Incidence of skin rash, Grade 1 (%): 5.9%
  Incidence of skin rash, Grade 2 (%): 8.6%
  Incidence of skin rash, Grade 3 (%): 0%
[7]; Males, afatinib 40 mg/day
  Incidence of skin rash, All grades (%): 17.6%
  Incidence of skin rash, Grade 1 (%): 14.7%
  Incidence of skin rash, Grade 2 (%): 12%
  Incidence of skin rash, Grade 3 (%): 0%
[7]; prophylaxis with polydatin, afatinib, n = 34
  patients who had to reduce the dose for the cutaneous toxicity of the drug: no patient
[7]; prophylaxis with polydatin, n = 34
  patients who had to reduce the dose of afatinib from 40 to 30 mg/day due to intestinal toxicity (%): 35.3%

## CNC(=O)c1cc(Oc2ccc(NC(=O)Nc3ccc(Cl)c(C(F)(F)F)c3)cc2)ccn1 [sorafenib]
skin
  alopecia: 15%
  folliculitis: 38%
  hand-foot syndrome (palmopantar erythrodysesthesia): 42%
  nail alterations: 14%
  pruritus: 36%
  skin rash: 46%
  stomatitis: 16%

## CCN(CC)CCNC(=O)c1c(C)[nH]c(/C=C2\C(=O)Nc3ccc(F)cc32)c1C [sunitinib]
skin
  alopecia: 15%
  folliculitis: 38%
  hand-foot syndrome (palmopantar erythrodysesthesia): 42%
  nail alterations: 14%
  pruritus: 36%
  skin rash: 46%
  stomatitis: 16%
